The text below walks through data of ChEMBL document CHEMBL1201862, “PubChem BioAssay data set” (2004).

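Five compound concentrations were applied to cells in 96-well plates for 48 hours; endpoints were derived by simple linear interpolation of the resulting dose-response curve. The concentration for 50% growth inhibition is given as GI50.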 The source made the active and inactive calls. Rule as the data show it: active = GI50 up to about 1.1 µM and inactive = higher.

Test systems include HCC 2998; UACC-257; OVCAR-5; CCRF-CEM; NCI-H226; SW-620; NCI-H23; A549; MCF7; COLO 205; U-251; TK-10; MDA-N; SK-OV-3; NCI-H460; BT-549; HT-29; MDA-MB-435; SNB-19.
Assay in all cases: NCI anticancer screen, dose series, 48 h

In the case of `c1ccc2c(Nc3ncco3)cccc2c1`, the GI50 with HCC 2998, with UACC-257, in the experiment on OVCAR-5, in the experiment on CCRF-CEM, with NCI-H226 and in the experiment with SW-620 was > 10 µM (inactive) each time. Besides, the GI50 with NCI-H23, in the experiment with A549, in the experiment on MCF7, in the experiment on COLO 205, in the experiment on U-251 and in the experiment on TK-10 was > 10 µM (inactive) throughout. The GI50 with MDA-N, with SK-OV-3, with NCI-H460, with BT-549, with HT-29 and in the experiment on MDA-MB-435 was > 10 µM (inactive) throughout. Further, the GI50 in the experiment on SNB-19 was > 10 µM (inactive).
For `CC(=O)N1CCN(C23OC4(N5CCN(C(C)=O)CC5)C5C6CC(C7C6C4C72)C53)CC1` (configuration not stated), the GI50 in the experiment on HCC 2998, with UACC-257, in the experiment with OVCAR-5, with CCRF-CEM, in the experiment on NCI-H226 and in the experiment with SW-620 was > 100 µM (inactive) each time. For the same compound, the GI50 in the experiment with NCI-H23, with A549, in the experiment on MCF7, in the experiment on COLO 205, in the experiment on U-251 and in the experiment with TK-10 was > 100 µM (inactive) in each case. In addition, the GI50 with MDA-N, in the experiment with SK-OV-3, in the experiment on NCI-H460, in the experiment on BT-549, with HT-29 and in the experiment with MDA-MB-435 was > 100 µM (inactive) throughout. The GI50 in the experiment with SNB-19 is > 100 µM (inactive).
Take `O=C1c2ccccc2-c2nc(-c3ccncc3)cc3c2c1nc1ccccc13`: the GI50 in the experiment with HCC 2998 is 18.7 µM (inactive); in the experiment with UACC-257, 19.1 µM (inactive); in the experiment on OVCAR-5, 18.7 µM (inactive); in the experiment on CCRF-CEM, 9.33 µM (inactive); with NCI-H226, 16.6 µM (inactive); in the experiment on SW-620, 24.3 µM (inactive). Also, the GI50 in the experiment on NCI-H23 is 15.3 µM (inactive); in the experiment on A549, 13.6 µM (inactive); in the experiment with MCF7, 16.5 µM (inactive); in the experiment with COLO 205 it was 22.3 µM (inactive); in the experiment with U-251, 14.9 µM (inactive); in the experiment on TK-10, 33.2 µM (inactive). The GI50 in the experiment with MDA-N was 17.4 µM (inactive); with SK-OV-3 it was > 100 µM (inactive); in the experiment on NCI-H460, 10.5 µM (inactive); with BT-549 it was 40.1 µM (inactive); in the experiment on HT-29, 24.9 µM (inactive); in the experiment on MDA-MB-435, 16 µM (inactive). In the experiment with SNB-19, the GI50 was 23.6 µM (inactive).
Take `COc1cc(-c2oc3c(OC)c(O)cc(O)c3c(=O)c2OC)ccc1O`: the GI50 in the experiment on HCC 2998 is 10.9 µM (inactive); with UACC-257, 26 µM (inactive); in the experiment on OVCAR-5, 22.3 µM (inactive); in the experiment on CCRF-CEM, 3.12 µM (inactive); with NCI-H226, 12.9 µM (inactive); in the experiment with SW-620, 13.8 µM (inactive). Moreover, the GI50 is 16.7 µM (inactive) in the experiment with NCI-H23; 7.29 µM (inactive) with A549; 19.7 µM (inactive) in the experiment with MCF7; 29.1 µM (inactive) with COLO 205; 3.66 µM (inactive) with U-251; 12.4 µM (inactive) in the experiment with TK-10. The GI50 is 10.6 µM (inactive) in the experiment on MDA-N; 1.55 µM (inactive) in the experiment with SK-OV-3; 6.95 µM (inactive) in the experiment on NCI-H460; 5.18 µM (inactive) in the experiment with BT-549; 37.4 µM (inactive) in the experiment with HT-29; 7.35 µM (inactive) in the experiment on MDA-MB-435. In addition, in the experiment with SNB-19, the GI50 was 41.4 µM (inactive).
`Cc1c(-c2ccccc2)c(C#N)c2nnn(-c3ccc(Cl)cc3)c(=O)n12`: the GI50 in the experiment on HCC 2998 is 10.6 µM (inactive); in the experiment with UACC-257, 35.8 µM (inactive); with OVCAR-5 it was > 100 µM (inactive); in the experiment on CCRF-CEM it was 18.3 µM (inactive); in the experiment with NCI-H226, 66.7 µM (inactive); in the experiment on SW-620 it was 25.2 µM (inactive). The GI50 in the experiment on NCI-H23 is 37 µM (inactive); in the experiment on A549, 21.5 µM (inactive); with MCF7 it was 7.59 µM (inactive); in the experiment on COLO 205, 11 µM (inactive); in the experiment with U-251, 13.8 µM (inactive); in the experiment with TK-10 it was 77.1 µM (inactive). Further, the GI50 in the experiment on MDA-N was 24.2 µM (inactive); in the experiment on SK-OV-3, 89.7 µM (inactive); in the experiment with NCI-H460 it was 4.83 µM (inactive); in the experiment on BT-549, 56.8 µM (inactive); in the experiment on HT-29, 15.8 µM (inactive); with MDA-MB-435, 31 µM (inactive). Moreover, in the experiment with SNB-19, the GI50 was > 100 µM (inactive).
Regarding `CCCCCCCCCCCCCCCCCCNc1nc(=O)n(C2CC(O)C(COP(=O)(O)O)O2)cc1F` (configuration not stated), the GI50 in the experiment with HCC 2998 was 15 µM (inactive); in the experiment with UACC-257, > 100 µM (inactive); in the experiment with OVCAR-5, > 100 µM (inactive); in the experiment on CCRF-CEM, 38 µM (inactive); in the experiment on NCI-H226, 38.9 µM (inactive); in the experiment with SW-620, > 100 µM (inactive). The GI50 is 58.1 µM (inactive) with NCI-H23; 17.4 µM (inactive) with A549; 16.9 µM (inactive) with MCF7; > 67.1 µM (inactive) with COLO 205; > 100 µM (inactive) in the experiment with U-251; > 100 µM (inactive) in the experiment with TK-10. Besides, the GI50 in the experiment with MDA-N is > 100 µM (inactive); in the experiment with SK-OV-3, > 100 µM (inactive); with NCI-H460, 35.5 µM (inactive); with BT-549 it was > 100 µM (inactive); in the experiment with HT-29 it was > 100 µM (inactive); with MDA-MB-435 it was > 100 µM (inactive). The GI50 with SNB-19 is > 100 µM (inactive).
Consider `CC(=O)NC1C(OCc2ccccc2)OC(CO)C(O)C1OCC(=O)N1CCCC1C(=O)N[C@@H](CCC(=O)NCCNCCNc1c2ccccc2nc2cccc([N+](=O)[O-])c12)C(N)=O` (some centres not stated), for which the GI50 in the experiment on HCC 2998 is 2.67 µM (inactive); with UACC-257, 6.28 µM (inactive); in the experiment with OVCAR-5 it was 6.81 µM (inactive); in the experiment on CCRF-CEM, 1.69 µM (inactive); with NCI-H226 it was 5.6 µM (inactive); with SW-620, 1.31 µM (inactive). The GI50 in the experiment on NCI-H23 was 2.51 µM (inactive); in the experiment with A549 it was 1.52 µM (inactive); with MCF7, 0.724 µM (active); with COLO 205, 1.88 µM (inactive); with U-251, 2.44 µM (inactive); in the experiment with TK-10, 4.27 µM (inactive). For the same compound, the GI50 in the experiment on MDA-N was 2.88 µM (inactive); in the experiment with SK-OV-3 it was 10.4 µM (inactive); in the experiment with NCI-H460, 0.849 µM (active); with BT-549, 4.82 µM (inactive); in the experiment on HT-29, 1.46 µM (inactive); with MDA-MB-435, 2.65 µM (inactive). Further, the GI50 in the experiment on SNB-19 was 5.5 µM (inactive).
Turning to `O=[N+]([O-])c1cccc2nc3ccccc3c(NCCCN3CCCCC3)c12`, the GI50 was < 0.01 µM (active) with HCC 2998; 0.0219 µM (active) in the experiment on UACC-257; 0.0208 µM (active) in the experiment on OVCAR-5; 0.024 µM (active) in the experiment on CCRF-CEM; 0.0169 µM (active) in the experiment with NCI-H226; < 0.01 µM (active) in the experiment with SW-620. Also, the GI50 with NCI-H23 was < 0.01 µM (active); in the experiment with A549, < 0.01 µM (active); in the experiment on MCF7, < 0.01 µM (active); with COLO 205 it was < 0.0107 µM (active); with U-251, < 0.0135 µM (active); in the experiment with TK-10 it was 0.0256 µM (active). Besides, the GI50 with MDA-N was 0.0102 µM (active); in the experiment on SK-OV-3, 0.028 µM (active); in the experiment with NCI-H460, < 0.01 µM (active); with BT-549, 0.0286 µM (active); in the experiment with HT-29, < 0.01 µM (active); in the experiment on MDA-MB-435 it was 0.0106 µM (active). The GI50 in the experiment with SNB-19 is 0.0233 µM (active).
